US7772255B2, “Method of treating tumors with azaxanthones” (Supratek Pharma, Inc., priority 2005, dated 2010)

Key:
CSML100 cells = experiment: S100A4-positive lung metastasis tumor model, alone or in combinations (Example 25); type: in vivo, mouse; conditions: CSML100 i.v. in A/J mice, mean±SEM
Description: Amlexanox solution for injections was prepared according to the Example 4. […] The animals were then divided randomly into 9 groups (n=9 except for control group): 1) intact control (n=13, saline); 2) Amlexanox (i.v. 100 mg/kg); 3) Amlexanox ([…]. 3 mg/kg); 5) Amlexanox ([…]. […] 10 mg/kg). […] The treatments were started on the day following the tumor cell implantation and continued for 10 consecutive days. […] The animal body weight was recorded as an index of treatment toxicity during the experiment. […] The data are expressed as mean±SEM for the number of metastatic sites on the lung surface.

B16F10/DX cells = experiment: B16 experimental metastasis model (Example 26); type: in vivo, mouse; conditions: B16F10/DX i.v. in C57BL/6 mice; TPT 2.0 mg/kg i.v. on day 1, 4, and 7; mean±SEM
Description: Amlexanox solution for injections was prepared according to the Example 4. B16F10/DX cell (2.0×10^5 cells per animal) were inoculated intravenously in female C57BL//6 mice (6-7 weeks old) and animals were then divided randomly into 4 groups (n=9 except for control group): 1) intact control (n=12, saline); 2) Amlexanox (100 mg/kg, daily p.o. administration); 3) TPT (2.0 mg/kg i.v. administration on day 1, 4, and 7); 5) Amlexanox (daily p.o. 100 mg/kg)+TPT (i.v. 2.0 mg/kg on day 1, 4, and 7). Intact control received oral administration with 10 ml/kg (volume/body weight) of saline, while Amlexanox was administrated orally and daily with a dose of 100 mg/kg in a volume of 10 ml/kg. The treatments were started from the day following the tumor cell implantation until the end of the protocol. However, TPT was administrated intravenously only on day 1, 4, and 7 after tumor implantation. The animal body weight was recorded as an index of treatment toxicity during the experiment.
The data in Table show metastasis formation in the lung in the mice implanted with B16F10/DX cells. The data are expressed as mean±SEM for the number of metastatic sites on the lung surface.

[1] = Chemical stability of Amlexanox sodium salt solution (HPLC); type: physicochemical; conditions: 20 mg Amlexanox sodium salt in 2 mL Tris buffer pH 7.2; 0.05 molar equivalent of the listed compound; 72 hours, ambient light, access to air; HPLC peak area
Description: 20 mg of crystalline Amlexanox sodium salt was dissolved in a clear glass test tube in 2 mL of Tris buffer, pH 7.2. For each of the stabilizing compounds listed in the Table below, 0.05 molar equivalent of the compound was added to the solution, mixed until dissolved, and left under ambient light, and with access to the air. Concentration of Amlexanox in the sample was determined by HPLC right after preparation, and after 72 hours. The chemical stability of Amlexanox was evaluated by comparison of area under the peak of amlexanox from the two analyses.

SMILES | Retained Amlexnox [1] | further results
CC[C@@]1(O)C(=O)OCc2c1cc1n(c2=O)Cc2cc3c(CN(C)C)c(O)ccc3nc2-1 [TPT, topotecan] |  | Lung Metastasis Number per Animal (CSML100 cells; TPT i.v. 3 mg/kg on day 1, 4, 7): 6.20 ± 1.32; Lung Metastasis Number per Animal (B16F10/DX cells): 88.0 ± 8.79
COc1cccc2c1C(=O)c1c(O)c3c(c(O)c1C2=O)C[C@@](O)(C(=O)CO)C[C@@H]3O[C@H]1C[C@H](N)[C@H](O)[C@H](C)O1 [Dox, doxorubicin] |  | Lung Metastasis Number per Animal (CSML100 cells; Dox i.v. 3 mg/kg on day 1, 4, 7): 15.6 ± 2.66
Cn1c(=O)c2c(ncn2C)n(C)c1=O [Caffeine] | 96.8% | 

Further lines, with some results ahead:

Retained Amlexnox [1] | SMILES | further results
93.1% | COC(=O)c1ccc(O)cc1 [Methyl 4-hydroxybenzoate] | 
99.5% | O=C1O[C@H]([C@@H](O)CO)C(O)=C1O [Ascorbic acid] | 
99.7% | CCCOC(=O)c1cc(O)c(O)c(O)c1 [Propyl galate] | 
99.6% | Cc1occc(=O)c1O [Maltol] | 
